In one test the test system is P-388 cells. The test is described as follows: Assay against P-388 cells (lymphoid neoplasm from DBA/2 mouse), cell count after three days. The format is cell-based. Particulars: P388, 72 h, 1×10^4 cells per well, three days of incubation, triplicate. The protocol:
Compounds were diluted in DMSO/MeOH/Acetone (1:4.5:4.5) and they were tested at different concentrations. The solvent was allowed to evaporate before the cells were seeded.
The following antitumoral assay, employing the current screening protocol has been carried out using the following cell line:
P-388 (lymphoid neoplasm from DBA/2 mouse).
Assay Against P-388 Cells (Lymphoidneoplasm from DBA/2 Mouse )
P-388 cells were seeded into 16 mm wells at 1×10^4 cells per well in 1 ml aliquots of MEM 10C containing different concentrations of the compound. All determinations were carried out in triplicate. A separate set of cultures without drug was counted daily to ensure that the cells remained in exponential growth over the period of observation. After three days of incubation, cells were counted and the IC50 was determined.

Another test deals with Gram positive bacteria. Particulars: background, literature; cited from earlier work.
In another test the test system is thymidylate synthetase. To be noted: background, literature; cited from earlier work.
For test [1] the following is noted: background statement, no test described; cited from earlier work.

≈ marks a conversion by molar mass, not a printed value.

For orientation: IC50 means the concentration needed to halve the response being measured.

The molecule `CCC1C(C)=CNC2=C1C(=O)c1c(C)cc(=O)[nH]c1C2=O` (centres unmarked) [Compound 1, 4,6-dimethyl-5-5,8-dihydro-1H-1,8-diazaanthracene-2,9,10-trione] returned an IC50 with P-388 cells of 1 µg/mL (≈ 3.52 µM).

`Cc1cc(=O)[nH]c2c1C(=O)C1=C(NC=CC1c1ccccc1)C2=O` (centres unmarked) [Compound 2, 4-methyl-5-phenyl-5,8-dihydro-1H-1,8-diazaanthracene-2,9,10-trione]: half-maximal inhibition in the test on P-388 cells (IC50) required 0.25 µg/mL (≈ 0.785 µM).

In the test on P-388 cells, `Cc1cc(=O)[nH]c2c1C(=O)C1=C(NC=CC1c1ccc(N(C)C)cc1)C2=O` (centres unmarked) [Compound 3, 5-(4-Dimethylamino-phenyl) 4-methyl-5,8-dihydro-1H-1,8-diazaanthracene-2,9,10-trione] registered an IC50 of 20 µg/mL (≈ 55.3 µM).

In the test with P-388 cells, `Cc1ccnc2c1C(=O)c1c(C)cc(=O)[nH]c1C2=O` [Compound 4, 4,5-dimethyl-1H-1,8-diazaanthracene-2,9,10-trione] returned an IC50 of 1 µg/mL (≈ 3.93 µM).

In the test with P-388 cells, `CCc1cnc2c(c1)C(=O)c1c(C)cc(=O)[nH]c1C2=O` [Compound 5, 6-ethy-4-methyl-1H-1,8-diazaanthracene-2,9,10-trione] gave an IC50 of 0.5 µg/mL (≈ 1.86 µM).

Molecule `Cc1cc(=O)[nH]c2c1C(=O)c1c(-c3ccc(N(C)C)cc3)ccnc1C2=O` [Compound 6, 5-(p-dimethylaminophenyl)-4-methyl-1H-1,8-diazaanthracene-2,9,10-trione] returned an IC50 with P-388 cells of 1 µg/mL (≈ 2.78 µM).

As to `CCc1cc2c([nH]c1=O)C(=O)c1ncc(C)cc1C2=O` [Compound 7, 3-ethyl-6-methyl-1H-1,8-diazaanthracene-2,9,10-trione], the IC50 with P-388 cells stood at 0.2 µg/mL (≈ 0.746 µM).

In the test with P-388 cells, `Cc1cc2c([nH]c1=O)C(=O)c1ccccc1C2=O` [Compound 8, 3-Methyl-1H-1azaanthracene-2,9,10-trione] gave an IC50 of 0.2 µg/mL (≈ 0.836 µM).

`CCCc1c2c([nH]c(=O)c1C)C(=O)c1[nH]c(=O)c(C)c(CCC)c1C2=O` [Diazaquinomicyn A]: the “activity against Gram positive bacteria” value with Gram positive bacteria is “good activity”. Further, in the test on thymidylate synthetase, the “capacity to inhibit the thymidylate synthetase” value is given as “capacity to inhibit”. The antitumoral activity entry in test [1] was “inactive”.
